According to patent US4532202A, “Coupler for photography” (Konishiroku Photo Industry Co., Ltd., priority 1982, dated 1985):

How the values were obtained:
[1] = Photographic characteristics (sensitivity, maximum density, maximum absorption) of silver halide color photographic material containing coupler; settings: cyan dye formed
Method: The resultant solution was mixed with 5 ml of an aqueous 10% solution of Alkanol B (aklylnaphthalene sulfonate, produced by Du Pont de Nemours & Co.) and 200 ml of an aqueous 5% gelatin solution and emulsified by means of a colloid mill to prepare respective coupler dispersions. Then, each of these coupler dispersions was added to 500 g of a gelatin-silver chlorobromide emulsion, and the mixture was applied on polyethylene coated paper, followed by drying, to prepare six kinds of light-sensitive silver halide color photographic materials. These samples were subjected to wedge exposure following the conventional procedure and then processed as follows.
Processing step (30° C.)
Color developing 3 min. 30 sec.
Bleach-fixing 1 min. 30 sec.
Washing with water 2 min.
In the following, compositions of respective processing solutions are shown.
[Composition of color developing solution]
4-Amino-3-methyl-N--ethyl-N--
(β-methanesulfonamidoethyl)-aniline sulfate
Sodium hexamethaphosphate 2.5 g
Anhydrous sodium sulfite 1.85 g
Made up to one liter with addition of water, and adjusted to pH 10.30 with sodium hydroxide.
[Composition of bleach-fixing solution]
Iron ammonium salt of ethylenediaminetetraacetic
Diammonium salt of ethylenediaminetetraacetic
Ammonium thiosulfate 124.5 g
Sodium metabisulfite 13.3 g
Anhydrous sodium sulfite 2.7 g
Made up to one liter with addition of water.
For samples obtained by the above processing, photographic characteristics were measured respectively. Measurements were conducted by use of PDA-60 Model sensitometer (produced by Konishiroku Photo Industry Co.) The results are shown in Table 3 below.
The sensitivity values are shown as relative sensitivities to the value of the sample having the highest sensitivity as 100.

[2] = Solubility test of couplers in di-n-butyl phthalate / ethyl acetate, visual evaluation of crystal precipitation; format: physicochemical; design: key: A: no precipitation; B: slight precipitation; C: precipitation in large amount; settings: 1 g coupler in 1 ml di-n-butyl phthalate and 4 ml ethyl acetate, dissolved at 70° C., left to stand at 20° C.
Method: Solubility tests were conducted by use of the couplers for photography of this invention and Control couplers as indicated in Table 2 below. Each one gram of respective couplers was added to a mixture of 1 ml of di-n-butyl phthalate and 4 ml of ethyl acetate and the resulting mixture was heated at 70° C. for complete dissolution, followed by sealing with a stopper. Each sample was left to stand at 20° C. and precipitation of crystals was evaluated by visual observation. In Table 2, in the evaluation column, A represents no precipitation, B slight precipitation and C precipitation in large amount.

SMILES | Maximum absorption [1] | Evaluation of solubility After 6 hours [2] | Evaluation of solubility After 12 hours [2] | Evaluation of solubility After one hour [2]
CCC(Oc1ccc(C(C)(C)CC)cc1C(C)(C)CC)C(=O)Nc1cc(Cl)c(C)c(Cl)c1O (stereo not drawn) [Control coupler (E)] | 654 nm | – | – | –
CC(C)C(Oc1ccc(C(C)(C)C)cc1C(C)(C)C)C(=O)Nc1cc(O)c(NC(=O)c2c(F)c(F)c(F)c(F)c2F)cc1Cl (stereo not drawn) [Exemplary compound (I-3)] | – | A | A | A
CCCCCCCCCCCCCCCc1cccc(OC(C(=O)Nc2cc(O)c(NC(=O)c3c(F)c(F)c(F)c(F)c3F)cc2Cl)C(C)C)c1 (stereo not drawn) [Exemplary compound (I-10), 2-(2,3,4,5,6-pentafluoro)benzamido-4-chloro-5-[α-(m-pentadecylphenoxy)-β-methylbutaneamido]phenol] | 654 nm | – | – | –
CCCCCCCCC(Oc1ccc(C(C)(C)CC)cc1C(C)(C)CC)C(=O)Nc1cc(O)c(NC(=O)c2c(F)c(F)c(F)c(F)c2F)cc1Cl (stereo not drawn) [Control coupler (C)] | – | C | C | B
CCCCCCCCCCCCC(Oc1ccc(O)c(C(C)(C)C)c1)C(=O)Nc1ccc(NC(=O)c2ccccc2F)c(O)c1 (stereo not drawn) [Control coupler (G)] | 640 nm | – | – | –
CCCCCCCCCCCCC(Oc1ccc(C(C)(C)CC)cc1C(C)(C)CC)C(=O)Nc1cc(O)c(NC(=O)c2c(F)c(F)c(F)c(F)c2F)cc1Cl (stereo not drawn) [Control coupler (D)] | – | B | C | B
CCCCCCCCCCCCC(Oc1ccc(NS(=O)(=O)CCCC)cc1)C(=O)Nc1cc(O)c(NC(=O)c2ccccc2)cc1Cl (stereo not drawn) [Control coupler (F)] | 641 nm | – | – | –
CCC(C)(C)c1ccc(OC(C(=O)Nc2cc(O)c(NC(=O)c3c(F)c(F)c(F)c(F)c3F)cc2Cl)C(C)C)c(C(C)(C)CC)c1 (stereo not drawn) [Exemplary compound (I-2), 2-(2,3,4,5,6-pentafluoro)benazmido-4-chloro-5-[α-(2,4-di-t-amylphenoxy)-β-methylbutaneamido]phenol] | 655 nm | A | A | A
CCCCS(=O)(=O)Nc1ccc(OC(C(=O)Nc2cc(O)c(NC(=O)c3c(F)c(F)c(F)c(F)c3F)cc2Cl)C(C)C)cc1 (stereo not drawn) [Exemplary compound (I-11)] | 657 nm | – | – | –
CCC(Oc1ccc(C(C)(C)CC)cc1C(C)(C)CC)C(=O)Nc1cc(O)c(NC(=O)c2c(F)c(F)c(F)c(F)c2F)cc1Cl (stereo not drawn) [Control coupler (B)] | – | C | C | B
CCC(C)C(Oc1ccc(C(C)(C)CC)cc1C(C)(C)CC)C(=O)Nc1cc(O)c(NC(=O)c2c(F)c(F)c(F)c(F)c2F)cc1Cl (stereo not drawn) [Exemplary compound (I-4)] | – | A | A | A
